The values that follow come from PubChem BioAssay AID720513 (Broad Institute, 2013).

Inconclusive results are not listed.

In this experiment the test system is U2OS PGC1a acetylation AlphaLISA, overnight. Briefly: PGC1a acetylation increase, cellular AlphaLISA – cell-based, cherry-picked samples, set 6, dose response (AID 720513).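 Note: cells made to overexpress flag tagged PGC1a plus GCN5 acetyltransferase by viral infection.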 Background: Bead proximity is the source of the signal in Alpha formats.
`Nc1c(C(=O)Nc2ccccc2)sc2ncc([N+](=O)[O-])cc12`: the AC40 was 1.06 µM. As for `CNC(=O)c1nnsc1S(=O)c1ccc(Cl)cc1` (stereo unspecified), the figure is 1.96 µM. For `CCOC(=O)C1=C[C@@H](C(C)(C)C)N(S(=O)(=O)c2ccc(C)cc2)[C@H]1c1cccc2ccccc12` the value was 0.543 µM; for `CCOC(=O)c1c(C)n(C)c2ccc(OCC(O)Cn3nc(C)c(Br)c3C)cc12` (stereo unspecified), 0.556 µM. For `O=C(CCn1nnc2ccccc21)Nc1nnc(Cc2ccccc2)s1`, the AC40 is 4.36 µM. As for `COC(=O)c1ccc(NC(=O)c2cccnc2)cc1`, the figure is 1.86 µM. For `Cc1cccc(C)c1-n1nnnc1C(c1ccccc1OC(F)(F)F)N1CCC(n2c(=O)[nH]c3ccccc32)CC1` (stereo unspecified) the value was 3.94 µM; for `Fc1ccc(-c2nn3c(C4COc5ccccc5O4)nnc3s2)cc1` (stereo unspecified), 1.01 µM; for `CCOC(=O)c1c(NC(=O)CSc2cn(CC)c3ccccc23)sc2c1CCC2`, 6.55 µM. Turning to `COc1ccc(S(=O)(=O)N2CCOCC2)cc1NC(=O)CCNC(=O)c1ccc([N+](=O)[O-])cc1`, the AC40 is less than 0.3 µM. For `COc1ccc(S(=O)(=O)N(C)CC(=O)Nc2cccc(C(C)=O)c2)cc1Cl` the value was 9.1 µM; for `Cc1cccc(-c2ccc3[nH]c4c(c3c2)CCN2C[C@@H]([C@H](C)O)[C@@H](N(C)C(=O)NC3CCCCC3)C[C@@H]42)c1`, 13.7 µM. As for `Fc1ccc(CN(Cc2ccccc2)C(c2cccs2)c2nnnn2C2CCCCC2)cc1` (stereo unspecified), the AC40 is 12.7 µM. For `O=C(Nc1ccc(F)cc1)N1CCN(c2nc3ccccc3s2)CC1` the value was 2.7 µM. As for `CCOC(=O)C1=C[C@@H](C(C)(C)C)N(S(=O)(=O)c2ccc(C)cc2)[C@H]1c1ccccc1`, the figure is 3.62 µM; as for `O=C(Cc1ccccc1)N1CCN(C(=O)c2cccs2)CC1`, 10 µM; as for `Cc1c(C(=O)NCCSCc2c(F)cccc2Cl)cnn1-c1ccc(Cl)cc1`, 10.5 µM. With `Cc1ccc2c(c1)CC1(CN2C)C(=O)NC(=O)N(C(C)C)C1=O` (stereo unspecified), the AC40 was 12 µM. For `Cc1csc(NC(=O)CSc2nsc(SCC(=O)Nc3nc(C)cs3)c2C#N)n1`, the AC40 is 4.36 µM. Consider `CNC(=O)c1cccn(Cc2ccc(C(F)(F)F)cc2)c1=O`, for which the AC40 is 17.5 µM. For `CCOC(=O)C1=C[C@@H](C(C)C)N(S(=O)(=O)c2ccc(C)cc2)[C@H]1c1ccc(C(F)(F)F)cc1` the value was 2.64 µM.

For `O=C(c1cccs1)N1CCN(c2nnc(-c3ccccc3)c3ccccc23)CC1`, the AC40 was 1.65 µM. For `O=C(COCc1cc(-c2ccc3c(c2)OCO3)on1)Nc1cccnc1` the value was 0.458 µM; for `COc1ccccc1-c1ccc(C2[C@@H]3CN(S(=O)(=O)c4ccc(C)cc4)C[C@H]2N3)cc1` (stereo partly specified), 19.7 µM; for `COc1ccc(NC(=O)C(=O)NCCC2CCCCN2S(=O)(=O)c2cccs2)cc1` (stereo unspecified), 17.9 µM. Take `CC(=O)Nc1nonc1-c1nc2ccccc2n1Cc1ccccc1`: the AC40 was 4.88 µM. As for `CC(NS(=O)(=O)c1ccccc1Cl)C1CC2CCC1C2` (stereo unspecified), the figure is 0.415 µM. As to `O=C(Nc1ccc(OCC(=O)N2CCC(Cc3ccccc3)CC2)cc1)c1ccco1`, the AC40 is 3.17 µM.

With `Cc1ccc(C(=O)N2CCN(c3ccc(NC(=O)c4ccc(Br)o4)cc3)CC2)cc1`, the AC40 was 3.72 µM.

For `CCOC(=S)SCC(=O)Nc1nc(C)c(C)s1`, the AC40 was 3.58 µM.

For the molecule `O=C(Cc1ccccc1)N1CCN(c2ccc([N+](=O)[O-])cc2)CC1`, the AC40 is 0.523 µM.

In the case of `COc1cccc(S(=O)(=O)N(C)C[C@@H]2Oc3cc(C4=CCCC4)ccc3S(=O)(=O)N([C@H](C)CO)C[C@@H]2C)c1`, the AC40 is 13 µM. For `C[C@H](CO)N1C[C@H](C)[C@@H](CN(C)Cc2ccc3c(c2)OCO3)Oc2cc(Br)ccc2S1(=O)=O` the value was 18.6 µM; for `c1coc(CN(Cc2cccs2)Cc2nnnn2C2CCCCC2)c1`, 2.52 µM; for `O=C(NCc1cccs1)C1Cc2c(-c3ccc(Cl)cc3)ccnc2O1` (stereo unspecified), 8.86 µM. `CC1CC(NS(=O)(=O)c2cccs2)CC(C)(C)C1` (stereo unspecified): the AC40 was 0.437 µM. As for `COc1cccc(C(=O)c2c[nH]c(C(=O)NCc3cccnc3)c2)c1`, the figure is 1.4 µM; as for `Cc1ccc2[nH]cc(C(=O)CN3CCN(c4ccccc4F)CC3)c2c1`, 2.99 µM; as for `CCOC(=O)C1=CC[C@@H](c2ccccc2)N(S(=O)(=O)c2ccc(C)cc2)[C@H]1c1ccc(CC)cc1`, 0.785 µM. For `COc1cc(CN2[C@@H]3CNC[C@H]2C3c2ccc(-c3ccccc3)cc2)cc(OC)c1` (stereo partly specified) the value was 18.3 µM; for `COC(=O)c1c(NC(=O)COC(=O)[C@@H](NS(=O)(=O)c2ccccc2)C(C)C)sc2c1CCC2`, 13.5 µM.

Turning to `Cc1cccc(C)c1-n1nnnc1C(c1cccs1)N1CCC(n2c(=O)[nH]c3ccccc32)CC1` (stereo unspecified), the AC40 is 5.87 µM.

`O=C(c1cc(C2CC2)on1)N1CCCC(N2CCN(c3cccc(C(F)(F)F)c3)CC2)C1` (stereo unspecified): the AC40 is 10.8 µM. For the molecule `COCCCn1c(N)c(C(=O)Nc2ccccc2)c2nc3ccccc3nc21`, the AC40 was 1.18 µM. As for `CCC(=O)Nc1ccc(C(=O)Cn2ncc(Cl)c(Cl)c2=O)cc1`, the figure is 1.63 µM; as for `Cc1c(C(=O)N2CCN(c3ccccn3)CC2)sc2ncnc(N3CCN(c4ccccc4)CC3)c12`, 10.9 µM.

On to `COc1ccc(Br)cc1CNc1ccccc1`, for which the AC40 is 8.98 µM. Regarding `COc1ccc(OC(=O)N(C)C[C@H]2OCc3ccccc3-c3c(n(C)c4ccccc34)C(=O)N([C@H](C)CO)C[C@H]2C)cc1`, the AC40 is 6.06 µM. With `CC(=O)c1ccc(N2CCN(C(=O)C(=O)c3c(C)[nH]c4ccccc34)CC2)cc1`, the AC40 was 0.996 µM.

Regarding `O=C(C[C@H]1CC[C@H]2[C@@H](COC[C@@H](O)CN2C(=O)c2cc(Cl)cc(Cl)c2)O1)N1CCc2ccccc2C1`, the AC40 is 9.14 µM. For `COc1ccc(Nc2nnc(C)c3ccccc23)cc1` the value was 5.12 µM; for `Clc1ccc(-c2nnc(-c3ccccc3)nc2N2CCSCC2)cc1`, 17.7 µM; for `O=C(Nc1ccc(-c2noc(-c3cccs3)n2)cc1)c1cccnc1`, 1.27 µM. As for `COc1ccc(S(=O)(=O)N2CCOCC2)cc1NC(=O)CCNC(=O)c1ccc(Cl)cc1`, the figure is 0.772 µM; as for `Cc1ccccc1NC(=O)c1nc(S(C)(=O)=O)ncc1Cl`, 0.992 µM. For `O=C(Nc1cccc(C(F)(F)F)c1)c1sc(Cl)nc1C(F)(F)F` the value was 3.01 µM; for `Cc1ccc(S(=O)(=O)N2CCN(S(=O)(=O)c3ccc(C)cc3)C2c2ccccc2)cc1`, 2.7 µM. As to `O=C(NCc1ccco1)c1scc2c1OCCO2`, the AC40 is 12.3 µM. Consider `O=C(COc1ccc(Cl)cc1)NCCCNC(=O)c1cccnc1`, for which the AC40 was 1.22 µM. `Cc1ccccc1-c1ccc2c(c1)O[C@H](CN(C)Cc1ccncc1)[C@@H](C)CN([C@@H](C)CO)S2(=O)=O`: the AC40 was 14.9 µM. As to `CCn1c(SC/C=C/c2ccccc2)nnc1-c1cccs1`, the AC40 is 11.2 µM. As for `COc1cc(-c2cnc3c(NC(C)=O)cc(-c4ccccc4CN(C)C)cn23)cc(OC)c1OC`, the figure is 8.19 µM. Turning to `COc1cc(CNC(=O)c2cc(-c3cc(C)cc(F)c3)n[nH]2)cc(OC)c1`, the AC40 is 15.8 µM.

On to `CCCCN(CCCC)S(=O)(=O)c1ccc2oc(C(=O)N3CCOCC3)c(C)c2c1`, for which the AC40 is 1.79 µM. As for `COc1cc(-c2nnn(CC#N)n2)ccc1OCc1ccccc1`, the figure is 0.296 µM; as for `COc1cc(CN2CCCC(CO)(Cc3cccc(Cl)c3)C2)cc2c1OCO2` (stereo unspecified), 8.62 µM; as for `COc1cc(C)c(CN2CCN(S(=O)(=O)c3ccc(Cl)s3)CC2)cc1OC`, 0.525 µM. Regarding `CCOC(=O)c1c(NC(=O)c2ccoc2C)sc2c1CCC2`, the AC40 is 13.9 µM. Turning to `CCC(C)(C)n1nnnc1C(c1ccccc1OC)N1CCSCC1` (stereo unspecified), the AC40 was 1.45 µM. As for `CC(C)(C)n1nnnc1CN(Cc1ccc(F)cc1)Cc1ccco1`, the figure is 1.73 µM; as for `CC(C)C(c1nnnn1Cc1ccccc1)N(Cc1ccco1)Cc1cccs1` (stereo unspecified), 0.907 µM. For `Cc1ccc(NC(=O)CN2CCC(NC(=O)Cc3ccccc3)CC2)c(C)c1` the value was 0.507 µM; for `COc1ccc(CCNC(=O)c2cc(-c3ccco3)on2)cc1OC`, 5.2 µM. As for `CC(=O)n1cc([C@@H]2C=C(C(=O)Nc3ccccc3)O[C@H](OCc3ccc(CO)cc3)C2)c2ccccc21`, the figure is 4.65 µM. As to `CC(C)(C)c1ccc(C(=O)Nc2ccc(C(=O)NCc3cccnc3)cc2)cc1`, the AC40 was less than 0.16 µM. As for `Cc1ccccc1-c1ccc([C@@H]2[C@H](CO)N3CCCCN(C(=O)Nc4cccc(F)c4)C[C@@H]23)cc1`, the figure is 8.22 µM; as for `C[C@@H]1CN([C@H](C)CO)C(=O)c2c(c3ccccc3n2C)-c2ccccc2CO[C@@H]1CN(C)C(=O)[C@H](C)c1ccccc1`, 3.36 µM. For `O=C(c1ccccc1)C(O)(Cc1ccccc1)c1ccccc1` (stereo unspecified) the value was 0.901 µM; for `O=C(NCCC1=CCCCC1)c1coc(=O)c(Br)c1`, 1.37 µM.

In the case of `CC(=O)CCS(=O)(=O)c1ccc(C)c(C)c1`, the AC40 is 6.64 µM.

Regarding `O=S(=O)(c1ccccc1)N(CC(F)(F)F)c1ccc(C(O)(C(F)(F)F)C(F)(F)F)cc1`, the AC40 was 6.8 µM. Consider `COc1cccc(NC(=O)N(C)C[C@H]2OCc3ccccc3-c3c(n(C)c4ccccc34)C(=O)N([C@@H](C)CO)C[C@@H]2C)c1`, for which the AC40 was 18.3 µM.

Regarding `CC1=CC(C)(C)N2C(=O)C3(SCC(=O)N3c3ccc(F)cc3)c3cc(C)cc1c32` (stereo unspecified), the AC40 was 0.966 µM. As for `CC1(C)CCCN(C(=O)N2c3ccccc3Sc3ccccc32)C1`, the figure is 1.33 µM; as for `CC(=O)Nc1cc(C(=O)OCc2cccc([N+](=O)[O-])c2)ccc1C`, 10.4 µM.

Turning to `CSc1nn(-c2ccc(C(=O)OC(C(=O)NC(N)=O)C(C)C)cc2)c(=S)s1` (stereo unspecified), the AC40 was 4.42 µM. For the molecule `COc1ccc(OC(=O)N(C)C[C@H]2OCc3ccccc3-c3c(n(C)c4ccccc34)C(=O)N([C@@H](C)CO)C[C@H]2C)cc1`, the AC40 is 6.72 µM. As for `Cc1c(C(=O)OCC(=O)c2c(N)n(CC(C)C)c(=O)n(C)c2=O)oc2ccccc12`, the figure is 8.24 µM; as for `O=S1(=O)CCOC[C@H](CC2CCCCC2)N1Cc1ccc(F)cc1`, 9.18 µM.

Turning to `CN1C(=O)/C(=C\c2ccc(N3CCCCC3)o2)C(=O)NC1=S`, the AC40 is 4.61 µM. As for `COc1ccc(C(c2nnnn2C2CCCCC2)N2CCC3(CC2)C(=O)NCN3c2ccccc2)cc1` (stereo unspecified), the AC40 was 3.46 µM.
